Reference: US20210267944A1 (BioXcel Therapeutics, Inc., priority 2018, published 2021)
Values joined by “and” are separate entries in the source; they are usually repeats but may differ in a detail not shown here. Identical values can stand only once. “Also recorded” adds a separate entry of the source. Counter-ions that a name gives are not always drawn. Like-named read-outs stand apart in the source and are kept apart here.

Tests used:
[1] = tested on: subjects suffering from schizophrenia; details: for RASS values after infusion start: schizophrenia patients, per patient
[2] = tested on: agitated subjects with senile dementia of Alzheimer's type; details: human, in vivo
Procedure: Clinical assessments of cognitive functioning, alertness/awareness, balance and reaction time were performed prior to the IV infusion, at the end of infusion until the participant had reached their baseline parameters or, in the judgment of the principal investigator, the participant had reached a stable and acceptable level of arousal.
Time period at which clinical assessment of cognitive functioning, alertness/awareness, balance, and reaction time persist after drowsiness has resolved was assessed. Cognitive functioning, alertness/awareness, balance, and reaction time reached to their baseline level within around 45 minutes after drowsiness was resolved/recovered (see Table 7).

[3] = tested on: healthy, elderly (55-75 years of age) volunteers
Procedure: Subjects in the initial cohorts were initially healthy, elderly (55-75 years of age) volunteers. Subjects in later cohort were elderly volunteers healthy except for having mild probable SDAT. Both sexes were included in all cohorts.
Each infusion rate was administered for 30 minutes. After 30 minutes, the dose was increased by an additional 0.1 mcg/kg/hr until the subject achieved a predetermined level of sedation as assessed by the Richmond Agitation-Sedation Scale (RASS) or a pre-specified reduction in BP and/or HR. The dosing rate was adjusted for subsequent cohorts based on the results of preceding cohorts. Continuous assessment was made of the level of arousal, BP and HR. […] Statistics were descriptive and correlational in terms of pharmacodynamic and pharmacokinetic relationships.
The participants in cohort 1 were designated by subject codes 11XX and 91XX, and those in cohort 2 were designated by subject codes 12XX. Time needed to resolve refers to the time from the cessation of the infusion to the resolution of the pharmacodynamic effect of the drug on either arousal or blood pressure and heart rate.

[4] = Opioid withdrawal Study
Source text: Additional Assessment Included: • 1. Hematological and blood chemistry, urinalysis • 2. Physical examination • 3. Standard of care detoxification treatment (ancillary medications) to alleviate symptoms of acute withdrawal to ensure safe discharge from study site. • 4. Adverse event reporting

clinical = details: human, in vivo
Procedure: These samples were assayed for the concentration of the drug in those participants randomized to test product.

[5] = tested on: agitated subjects with senile dementia of Alzheimer's type; details: for RASS score: per subject
Procedure: Clinical evaluation was performed as follows. Patients were screened up to 4 weeks prior to randomization. After obtaining the written informed consent from subjects, subjects were allowed to participate in the study related screening activities. Screening activities included clinical laboratory tests, physical examination, ECG, etc. After completion of all screening related activities, the eligible subjects [male and female subjects 55 to 75 years of age; known cases of mild probable Alzheimer's disease (SDAT) in accordance with NINCDS/ADRDA criteria for diagnosis of Alzheimer's disease with a Mini-Mental State Score of between 20 to 24; RASS score of +1 or +2 on the Day −1 and prior to drug administration on Day 1] were randomized in the study (treatment allocation 5:2). Subjects were housed in the clinic from Day −1 (preferably in the afternoon or evening) to end of study. Additional housing was allowed performed based on the investigator's discretion.
Study drug IV infusion was to be stopped at any time if any of the following occurred: • There was more than 20 mm Hg decrease in systolic or diastolic blood pressure. • There was an isolated drop in Systolic BP<100 mm of Hg. • There was an isolated drop Diastolic BP<60 mm of Hg. • There was a decrease in heart rate of 20 beats per minute or a drop below 50 beats per minute. • Attainment of a RASS of −1 at the end of each 30 minutes infusion period.
All raters were trained in the use of the RASS scale.
Once the participant was drowsy but able to respond to verbal stimulation, the infusion was stopped, and time was recorded.

[6] = human, in vivo

In the case of `Cc1cccc([C@H](C)c2cnc[nH]2)c1C` [dexmedetomidine hydrochloride], the “Efficacy (Primary/secondary end points): subjects reaching RASS-1” value (from here on “Efficacy (Primary/secondary end points)”) ([1]; Schizophrenia Study) is reported as 9/10 RASS-1, the “Range of efficacious dose of IV dexmedetomidine hydrochloride” value ([1]; Schizophrenia Study, continuous infusion) is reported as 0.2 to 0.4 µg/kg/h and the “patients in the treatment arm who achieved a RASS score of at least −1” value ([1]; schizophrenia) is reported as 9 out of 10. For the same molecule, the “RASS values after infusion start” value ([1]; infusion 15 minutes) was −2 and −1, the “RASS values after infusion start” value ([1]; infusion 30 minutes) was 0 and the “RASS values after infusion start” value ([1]; infusion 75 minutes) was −1. For the same molecule, the “RASS values after infusion start” value ([1]; infusion 90 minutes) was 0, the “RASS values after infusion start” value ([1]; infusion […]) was 0 and the Mean infusion rate ([1]; schizophrenic patients) was 0.36 µg/kg/h. For the same molecule, the “Time for cognitive functioning, alertness/awareness, balance, reaction time to reach baseline after drowsiness” value [2] was 10 min, the “Time for cognitive functioning, alertness/awareness, balance, reaction time to reach baseline after drowsiness, Max” value [2] was 90 min and the “Time for cognitive functioning, alertness/awareness, balance, reaction time to reach baseline after drowsiness, Mean ± SD” value [2] was 42.9 ± 27.36 min. The “Time for cognitive functioning, alertness/awareness, balance, reaction time to reach baseline after drowsiness, Median” value [2] was 45 min, the “time for cognitive functioning, alertness/awareness, balance, reaction time to reach baseline level after drowsiness resolved” value [2] was ≤ 45 min and the “time to mild sedation after starting the dose which produced the desired effect” value ([3]; Example 1A) was ≤ 30 min. For the same molecule, the “subjects in whom mild sedation (RASS score of −1) was evident” value ([3]; Example 1A, IV infusion 0.1-0.6 mcg/kg/hr) was 11/12, the “Efficacy (Primary/secondary end points)” value ([3]; Healthy Volunteers Cohort 1) was 6/6 RASS-1 and the “Range of efficacious dose of IV dexmedetomidine hydrochloride” value ([3]; Healthy Volunteers Cohort 1, continuous infusion) was 0.3 to 0.5 µg/kg/h. For the same molecule, the “Efficacy (Primary/secondary end points)” value ([3]; Healthy Volunteers Cohort 2) was 5/6 RASS-1, the “Range of efficacious dose of IV dexmedetomidine hydrochloride” value ([3]; Healthy Volunteers Cohort 2, continuous infusion) was 0.3 to 0.4 µg/kg/h and the Endpoint ([3]; healthy elderly volunteers, per subject, endpoint/stopping criterion reached) was “RASS −2; also recorded: RASS −1”. For the same molecule, the “IV infusion rate at which desired effect/stopping criteria achieved” value ([3]; healthy elderly volunteers, per subject, rate raised every 30 min) was 0.3 mcg/kg/hr (4×) and 0.4 mcg/kg/hr (7×) and 0.5 mcg/kg/hr, the “effects on blood pressure and/or heart rate at exposure achieving mild sedation” value ([3]; in vivo) was “did not produce clinically meaningful effects on blood pressure and/or heart rate” and the tolerability ([3]; in vivo) was “well-tolerated”. The “dose required by males compared to females” value ([3]; p<0.02, Sign test) was “twice”, the optimal starting dose ([3]; results of cohorts 1 and 2) was 0.3 µg/kg/h and the adverse events [4] was “No adverse event was reported”. The “Time to reach Cmax, range” value (clinical) was 60 to 150 min, the “maximum dexmedetomidine concentrations, range” value (clinical) was 102 to 380 pg/mL and the Plasma concentrations (clinical; 0 h) was 0 ng/mL. For the same molecule, the Plasma concentrations (clinical; 2 h) was 0.31805 ng/mL, the concentration at 0 h (clinical; Plasma concentrations) was 0 ng/mL and the concentration at 2 h (clinical; Plasma concentrations) was 0.378 ng/mL. The “Efficacy (Primary/secondary end points)” value ([5]; Alzheimer's Study) was 7/10 RASS-1, the “Range of efficacious dose of IV dexmedetomidine hydrochloride” value ([5]; Alzheimer's Study, continuous infusion) was 0.2 to 0.5 µg/kg/h and the “time after infusion discontinuation at which subjects became alert and remained calm” value ([5]; SDAT) was “around 30 minutes”. The “IV infusion rate, range” value ([5]; SDAT patients) was 0.2 to 0.5 µg/kg/h, the RASS score ([5]; SDAT patients, 00:00 Hr, listed as Treatment) was 2 (5×) and 1 (5×) and the RASS score ([5]; SDAT patients, 02:30 Hr) was 1. The “Total dose, range” value ([5]; SDAT, extent of exposure) was 0.15 to 0.75 µg/kg, the “Time period for which a calming effect persisted after discontinuation of study drug” value ([5]; SDAT, n=7) was 5 min and the “Time period for which a calming effect persisted after discontinuation of study drug, Max” value ([5]; SDAT, n=7) was 45 min. The “Time period for which a calming effect persisted after discontinuation of study drug, Mean ± SD” value ([5]; SDAT, n=7) was 28.6 ± 15.74 min, the “Time period for which a calming effect persisted after discontinuation of study drug, Median” value ([5]; SDAT, n=7) was 30 min and the “optimal dose at which a RASS score of −1 was achieved, Max” value ([5]; SDAT, n=7) was 0.5 µg/kg/h. For the same molecule, the “optimal dose at which a RASS score of −1 was achieved, Mean ± Sd (mean infusion rate)” value (“optimal dose … Mean ± Sd (mean infusion rate)” for short) ([5]; SDAT, n=7) was 0.34 µg/kg/h, the “optimal dose at which a RASS score of −1 was achieved, Median” value ([5]; SDAT, n=7) was 0.30 µg/kg/h and the “optimal dose at which a RASS score of −1 was achieved, Min” value ([5]; SDAT, n=7) was 0.2 µg/kg/h. For the same molecule, the “optimal dose at which a RASS score of −1 was achieved, Mode” value ([5]; SDAT, n=7) was 0.30 µg/kg/h, the “optimal dose … Mean ± Sd (mean infusion rate)” value ([5]; SDAT, n=7, listed as Test) was 0.34 ± 0.098 µg/kg/h and the “optimal dose … Mean ± Sd (mean infusion rate)” value ([5]; SDAT, n=7, listed as dexmedetomidine) was 0.34 µg/kg/h. The “subjects who achieved a RASS score of −1” value ([5]; SDAT, out of 10 subjects) was 7 and the “Time to reach Cmax, range” value [6] was 15 to 105 min.
